Measurements taken from US20260206756A1, “COMPOUNDS AND METHODS OF TREATING OR PREVENTING A BACTERIAL INFECTION IN A PLANT” (Ohio State Innovation Foundation, priority 2023, published 2026).
≈ marks a conversion by molar mass, not a printed value. Where two headings read alike, the source gives them in different places.

Legend:
[1] = tested on: Pseudomonas syringae pv. syringae (Pss) SM1042-14R; assay: Dose-response assay (MIC/MBC) in M9 minimal broth; settings: strain SM1042-14R, 48 h, 28° C.
Description: (§1) Primary screening of 4,182 SMs was conducted using a high throughput screening method to identify SMs that inhibited the growth of Pss SM1042-14R strain. A fresh bacterial culture of SM1042-14R was grown in M9 minimal broth in a shaking incubator (180 rpm) for 12 h at 28° C. The bacterial culture was normalized to a final optical density (OD600) of 0.05 (c.a., 8.0×10^7 CFU/ml) using a Genesys 20 spectrophotometer (Thermo Scientific, Rockford, IL, USA). In a sterile flat-bottom 96-well plate, 98 μl of the normalized bacterial suspension was challenged with 2 μl of SMs (final concentration of 200 μM). Controls were bacteria challenged with 2% DMSO (positive control; μc+), 50 μg/ml kanamycin (negative control; μc−), or M9 broth alone (blank control). The plate was incubated in a Sunrise Tecan kinetic microplate reader (Tecan Group Ltd., San Jose, CA, USA) for 48 h at 28° C. OD600 was measured every 30 min.
(§2) The plate was agitated for 15 s at 180 rpm before reading the OD600. Growth inhibition of SM1042-14R by the SMs was calculated using the following formula: % of inhibition=(μc+−X)/(μc+−μc−)×100, where μc+ and μc− is the average final OD600 of the positive and negative controls, respectively, and X is the final OD600 of each of the bacterial culture treated with a designated SM. After the 48 h of incubation with the SMs at 28° C., the viability of the bacterial culture was assessed by plating 5 μl of the culture on YDC (Yeast Dextrose Carbonate) agar medium, incubating the plate at 28° C. and monitoring any bacterial colonies on the plate after 48 h.
(§3) A dose-response assay was conducted with the 15 PCs identified during the primary screening against 10 Pss strains including the model strain, SM1042-14R. The dose-response assay was conducted as described above with concentrations of PCs ranging from 3.125 to 500 μM. Pss treated with non-amended M9 minimal media, 2% DMSO, or 50 μg/ml kanamycin were used as controls. The plate was incubated in a Sunrise Tecan kinetic microplate reader for 48 h at 28° C. The percentage of inhibition and cell viability were determined as described above.

[2] = tested on: Pseudomonas syringae pv. syringae (Pss) SM156-18; assay: Dose-response assay (MIC/MBC) in M9 minimal broth; settings: 48 h
Description: (§4) Minimum inhibitory concentration (MIC) and minimum bactericidal concentration (MBC) of the 15 PCs against 10 Pss strains. A dose-response assay was conducted with the 15 PCs identified during the primary screening against 10 Pss strains including the model strain, SM1042-14R. The dose-response assay was conducted as described above with concentrations of PCs ranging from 3.125 to 500 μM. Pss treated with non-amended M9 minimal media, 2% DMSO, or 50 μg/ml kanamycin were used as controls. The plate was incubated in a Sunrise Tecan kinetic microplate reader for 48 h at 28° C. The percentage of inhibition and cell viability were determined as described above.

[3] = tested on: Pseudomonas syringae pv. syringae (Pss) SM155-18; assay: Dose-response assay (MIC/MBC) in M9 minimal broth; settings: 48 h
Description: as §1, §2, §3

[4] = tested on: Pseudomonas syringae pv. syringae (Pss) SM51-19; assay: Dose-response assay (MIC/MBC) in M9 minimal broth; settings: 48 h
Description: as §4

[5] = tested on: Pss SM1042-14R on pepper seedlings; format: in vivo, Pseudomonas syringae pv. syringae; settings: 200 μM, 7 dpi; for Pseudomonas leaf spot incidence, Curative application / Pseudomonas leaf spot incidence, Preventative application: streptomycin 200 μg/ml, CuSO4 200 μM
[6] = tested on: Pseudomonas syringae pv. syringae (Pss) SM109-18; assay: Dose-response assay (MIC/MBC) in M9 minimal broth; settings: 48 h
Description: as §1, §2, §3

[7] = tested on: Pseudomonas syringae pv. syringae (Pss) SM914-13; assay: Dose-response assay (MIC/MBC) in M9 minimal broth; settings: 48 h
Description: as §4

[8] = tested on: Pseudomonas syringae pv. syringae (Pss) SM1031-14; assay: Dose-response assay (MIC/MBC) in M9 minimal broth; settings: 48 h
Description: as §1, §2, §3

[9] = tested on: Pseudomonas syringae pv. syringae (Pss) SM04-2018-04; assay: Dose-response assay (MIC/MBC) in M9 minimal broth; settings: 48 h
Description: as §4

[10] = tested on: Pseudomonas syringae pv. syringae (Pss) SM1030-14; assay: Dose-response assay (MIC/MBC) in M9 minimal broth; settings: 48 h
Description: as §1, §2, §3

[11] = tested on: Pseudomonas syringae pv. syringae (Pss) SM1038-14; assay: Dose-response assay (MIC/MBC) in M9 minimal broth; settings: 48 h
Description: as §4

[12] = tested on: Pss SM1042-14R in infested pepper seeds; assay: Antimicrobial efficacy on pepper seeds artificially infested with Pss; format: in vivo, Pseudomonas syringae pv. syringae; settings: 20 days post infestation, 200 μM, 20 min soak
Description: Antimicrobial efficacy of ten selected PCs on pepper seeds artificially infested with Pss SM1042-14R. ‘California Wonder’ pepper seeds were used for artificial infestation with Pss SM1042-14R and PC treatment. Inoculum of Pss SM1042-14R was prepared by growing SM1042-14R in M9 minimal medium overnight as described above. The OD600 was adjusted to 0.1; approximately 1×10^8 CFU/ml. The adjusted inoculum (45 ml of inoculum for 4 g seeds) was transferred to a sterile glass beaker and placed in a Nucerite desiccator (Nalge Sybron, Milwaukee, WI, USA). Seeds were vacuum infiltrated with inoculum at 15 PSI for 5 min. Infested seeds were air-dried in a laminar flow hood at room temperature for 12 h. The dried seeds were transferred to 5 ml sterile tubes and soaked in 1 ml of PCs (200 μM) diluted in sterile water for 20 min. The seeds were air-dried again. Seed aliquots were collected at 1, 3-, 10-, 20-, and 30-days post infestation (dpi, 10 seeds per treatment group per time point). Bacterial populations were estimated by macerating five batches of two seeds per treatment group in 400 μl of 1×PBS in a Whirl Pak bag. […] This was performed twice.

[13] = strain SM156-18, M9 broth, 28° C.
[14] = strain SM155-18, M9 broth, 28° C.
[15] = strain SM51-19, M9 broth, 28° C.
[16] = strain SM109-18, M9 broth, 28° C.
[17] = strain SM914-13, M9 broth, 28° C.
[18] = strain SM1031-14, M9 broth, 28° C.
[19] = strain SM04-2018-04, M9 broth, 28° C.
[20] = strain SM1030-14, M9 broth, 28° C.
[21] = strain SM1038-14, M9 broth, 28° C.
[22] = preventative (1 day prior to inoculation)

CCCCCCCCCCCCCCCC[n+]1ccn(CC#N)c1.[Cl-] [PC3]
MBC [1]: 25 µM
MIC [1]: 25 µM
MBC [2, 13]: 50 µM
MIC [2, 13]: 25 µM
MBC [3, 14]: 50 µM
MIC [3, 14]: 25 µM
MBC [4, 15]: 50 µM
MIC [4, 15]: 25 µM
Pseudomonas leaf spot incidence, Curative application [5]: 86%
Pseudomonas leaf spot incidence, Preventative application [5]: 100%
MBC [6, 16]: 25 µM
MIC [6, 16]: 25 µM
MBC [7, 17]: 25 µM
MIC [7, 17]: 12.5 µM
MBC [8, 18]: 25 µM
MIC [8, 18]: 25 µM
MBC [9, 19]: 25 µM
MIC [9, 19]: 12.5 µM
MBC [10, 20]: 50 µM
MIC [10, 20]: 25 µM
MBC [11, 21]: 50 µM
MIC [11, 21]: 25 µM

CC1CCC(C(C)C)C(OC(=O)Cn2c[n+](CC(=O)OC3CC(C)CCC3C(C)C)c3ccccc32)C1 (centres unmarked) [PC4]
MBC ([2]; Pseudomonas syringae): 12.5 µM
MIC ([2]; Pseudomonas syringae): 12.5 µM
MBC ([3]; Pseudomonas syringae): 25 µM
MIC ([3]; Pseudomonas syringae): 12.5 µM
MBC ([4]; Pseudomonas syringae): 12.5 µM
MIC ([4]; Pseudomonas syringae): 12.5 µM
Pseudomonas leaf spot incidence, Curative application [5]: 100%
Pseudomonas leaf spot incidence, Preventative application [5]: 100%
MBC ([6]; Pseudomonas syringae): 12.5 µM
MIC ([6]; Pseudomonas syringae): 12.5 µM
MBC ([7]; Pseudomonas syringae): 12.5 µM
MIC ([7]; Pseudomonas syringae): 12.5 µM
MBC ([8]; Pseudomonas syringae): 12.5 µM
MIC ([8]; Pseudomonas syringae): 12.5 µM
MBC ([9]; Pseudomonas syringae): 25 µM
MIC ([9]; Pseudomonas syringae): 12.5 µM
MBC ([10]; Pseudomonas syringae): 12.5 µM
MIC ([10]; Pseudomonas syringae): 12.5 µM
MBC ([11]; Pseudomonas syringae): 12.5 µM
MIC ([11]; Pseudomonas syringae): 12.5 µM

O=S(=O)([O-])[O-].[Cu+2] [CuSO4, copper sulfate]
reduction in Pss load in infested seeds [12]: 1.9±0.5 log CFU/g
Pseudomonas leaf spot incidence, Curative application [5]: 57%
Pseudomonas leaf spot incidence, Preventative application [5]: 100%
Pss reduction compared to the DMSO group ([5]; curative (1 dpi)): 1.1±0.5 log CFU/g
disease severity (number of lesions per two leaves) ([5]; curative (1 dpi), first trial): 28.1±13.9 lesions
disease severity (number of lesions per two leaves) [5, 22]: 188.4±163.5 lesions
reduction in Pss load compared to the DMSO group [5, 22]: 0.05±0.01 log CFU/g

CCOc1ccc2nc3cc(N)ccc3c(N)c2c1 [PC7]
MBC [1]: 100 µM (≈ 25.3 µg/mL)
MIC [1]: 50 µM (≈ 12.7 µg/mL)
MBC [2, 13]: 100 µM (≈ 25.3 µg/mL)
MIC [2, 13]: 50 µM (≈ 12.7 µg/mL)
MBC [3, 14]: 100 µM (≈ 25.3 µg/mL)
MIC [3, 14]: 50 µM (≈ 12.7 µg/mL)
MBC [4, 15]: 200 µM (≈ 50.7 µg/mL)
MIC [4, 15]: 50 µM (≈ 12.7 µg/mL)
Pseudomonas leaf spot incidence, Preventative application [5]: 86%
MBC [6, 16]: 100 µM (≈ 25.3 µg/mL)
MIC [6, 16]: 50 µM (≈ 12.7 µg/mL)
MBC [7, 17]: 50 µM (≈ 12.7 µg/mL)
MIC [7, 17]: 25 µM (≈ 6.33 µg/mL)
MBC [8, 18]: 100 µM (≈ 25.3 µg/mL)
MIC [8, 18]: 50 µM (≈ 12.7 µg/mL)
MBC [9, 19]: 100 µM (≈ 25.3 µg/mL)
MIC [9, 19]: 50 µM (≈ 12.7 µg/mL)
MBC [10, 20]: 100 µM (≈ 25.3 µg/mL)
MIC [10, 20]: 50 µM (≈ 12.7 µg/mL)
MBC [11, 21]: 100 µM (≈ 25.3 µg/mL)
MIC [11, 21]: 50 µM (≈ 12.7 µg/mL)

CCCCCCCCCCCCCCCCn1c[n+](C)c2ccccc21 [PC1]
MBC ([2]; Pseudomonas syringae): 12.5 µM
MIC ([2]; Pseudomonas syringae): 6.25 µM
MBC ([3]; Pseudomonas syringae): 12.5 µM
MIC ([3]; Pseudomonas syringae): 6.25 µM
MBC ([4]; Pseudomonas syringae): 12.5 µM
MIC ([4]; Pseudomonas syringae): 6.25 µM
Pseudomonas leaf spot incidence, Curative application [5]: 86%
Pseudomonas leaf spot incidence, Preventative application [5]: 100%
MBC ([6]; Pseudomonas syringae): 12.5 µM
MIC ([6]; Pseudomonas syringae): 6.25 µM
MBC ([7]; Pseudomonas syringae): 12.5 µM
MIC ([7]; Pseudomonas syringae): 6.25 µM
MBC ([8]; Pseudomonas syringae): 12.5 µM
MIC ([8]; Pseudomonas syringae): 6.25 µM
MBC ([9]; Pseudomonas syringae): 12.5 µM
MIC ([9]; Pseudomonas syringae): 6.25 µM
MBC ([10]; Pseudomonas syringae): 25 µM
MIC ([10]; Pseudomonas syringae): 6.25 µM
MBC ([11]; Pseudomonas syringae): 25 µM
MIC ([11]; Pseudomonas syringae): 12.5 µM

CCN1/C(=C/c2ccc3ccccc3[n+]2CC)C=Cc2ccccc21 [PC2]
MBC ([2]; Pseudomonas syringae): 25 µM
MIC ([2]; Pseudomonas syringae): 6.25 µM
MBC ([3]; Pseudomonas syringae): 25 µM
MIC ([3]; Pseudomonas syringae): 12.5 µM
MBC ([4]; Pseudomonas syringae): 50 µM
MIC ([4]; Pseudomonas syringae): 6.25 µM
Pseudomonas leaf spot incidence, Curative application [5]: 86%
Pseudomonas leaf spot incidence, Preventative application [5]: 100%
MBC ([6]; Pseudomonas syringae): 12.5 µM
MIC ([6]; Pseudomonas syringae): 12.5 µM
MBC ([7]; Pseudomonas syringae): 25 µM
MIC ([7]; Pseudomonas syringae): 6.25 µM
MBC ([8]; Pseudomonas syringae): 25 µM
MIC ([8]; Pseudomonas syringae): 6.25 µM
MBC ([9]; Pseudomonas syringae): 25 µM
MIC ([9]; Pseudomonas syringae): 6.25 µM
MBC ([10]; Pseudomonas syringae): 50 µM
MIC ([10]; Pseudomonas syringae): 6.25 µM
MBC ([11]; Pseudomonas syringae): 25 µM
MIC ([11]; Pseudomonas syringae): 12.5 µM
